# Data from patent publication US20060276407A1, “Methods of treating hepatitis C virus” (Schering Corporation, priority 2005, published 2006).
# Read-outs that look alike come from different tables or passages of the source.
# Experiments:
# [1] = Phase 1 rising-single-dose pharmacokinetic study in healthy adult subjects (Example 1); format: in vivo, human; details: for half-life / AUC / Tmax / Cmax / Vd/F: human; for AUC: po; for DN AUC(l) / DN AUC(tf) / DN Cmax: dose-normalized (to 50 mg)
# Procedure: A Phase 1, randomized, third-party-blind (within dose level), placebo-controlled, rising-single-dose study of compounds of Formulae I-XXVI was conducted in healthy adult subjects.
# Nine subjects in each group received either compound of Formula Ia (n=6) or placebo (n=3). Those subjects randomized to active compound received one of the following doses of compound of Formula Ia: 50, 100, 200, 400, 600, or 800 mg.
# On Day 1, at least 10 hours prior to compound administration, an overnight fast was maintained until 4 hours following treatment administration, after which lunch was served. During the fasting period, no food or fluid (except noncarbonated water) was permitted; furthermore, drinking water was prohibited from 2 hours predose to 2 hours postdose, with the exception of the approximately 240 mL administered with the treatments.
# Blood samples (7 mL each) for the determination of compound of Formula Ia concentrations were collected immediately prior to dosing (0 hour), and at 0.25, 0.5, 0.75, 1, 1.5, 2, 3, 4, 5, 6, 8, 10, 12, 18, 24, 36, 48, 72, and 144 hours postdose. The blood samples were collected into tubes containing EDTA. The samples were separated by centrifugation at 4° C. for 15 minutes at 1500 g to obtain the plasma, and the plasma samples frozen at −20° C. until assayed.
# Plasma concentrations of compound of Formula Ia were determined using a validated liquid chromatography tandem mass spectrometry (LC-MS/MS) method. The assay lower limit of quantitation (LLOQ) was 0.50 ng/mL, and the method was validated over the concentration range of 0.50 to 1000 ng/mL.
# The mean and percent coefficients of variation (% CV) were calculated for the plasma concentrations of compound of Formula Ia at each time point. Concentration values less than the assay LLOQ were reported as and set to zero in the calculations and tables. The plasma concentration-time data for compound of Formula Ia were subjected to pharmacokinetic analysis by noncompartmental methods using WinNonlin software. Nominal sampling times were used for pharmacokinetic analysis.
# For each subject, the following compound of Formula Ia pharmacokinetic parameters were determined: • Cmax Maximum observed plasma concentration • Tmax Time of maximum observed plasma concentration • tf Time of final quantifiable sample • AUC(tf) Area under the plasma concentration-time curve from time 0 to tf • AUC(l) Area under the plasma concentration-time curve from time 0 to infinity [AUC(l)=[…]+C(tf)estimated/k, where k and C(tf)estimated are terminal elimination rate constant and estimated concentration at final quantifiable sample, respectively] • t½ Terminal-phase half-life (t½=ln 2/k) • CL/F Apparent total body clearance (CL/F=Dose/AUC[l]) • Vd/F Apparent volume of distribution (Vd/F=CL/F*(t1/2/0.693))
# Dose-adjusted (to 50 mg) Cmax, AUC(l), and AUC(tf) values were also calculated. Cmax, Tmax, and if were the observed values. The terminal phase rate constant (k) was calculated as the negative of the slope of the log-linear terminal portion of the plasma concentration-time curve using linear regression (at least three time points). The number of points needed to determine the terminal phase rate constant was selected by WinNonlin software.
# Summary statistics, including means, standard deviations, and coefficients of variation (CV) expressed as a percent, were computed for the single-dose plasma compound of Formula Ia concentration data at each sampling time point and for the derived pharmacokinetic parameters for each dose level using a standard program based on SAS/STAT (Release 6.12; SAS Institute Inc., North Carolina).
# The log-transformed dose-adjusted (to 50 mg) Cmax and AUC values of compound of Formula Ia were statistically analyzed using an analysis of variance (ANOVA) model. The effect due to treatment (dose) was extracted. Ninety-five percent confidence intervals (CIs) for the means at each dose level, based on the nontransformed data, were provided. […]
# [2] = system: bicistronic subgenomic replicon (genotype 1b); assay: Bicistronic subgenomic replicon suppression, 72 hour assay in HuH-7 cells; format: cell-based, HCV; details: Hepatitis C virus
# Text: NS3-mediated cleavage of the HCV polyprotein releases functional viral proteins essential for viral propagation. Therefore, blockage of NS3 protease activity by compound of Formula Ia is expected to inhibit viral replication in infected host cells.
# [3] = plasma, single oral dose 50 mg, mean, n = 6
# [4] = plasma, single oral dose 100 mg, mean, n = 6
# [5] = plasma, single oral dose 200 mg, mean, n = 6
# [6] = plasma, single oral dose 400 mg, mean, n = 6
# [7] = plasma, single oral dose 600 mg, mean, n = 6
# [8] = plasma, single oral dose 800 mg, mean, n = 6
# [9] = single oral dose 50 mg, mean, n = 6
# [10] = single oral dose 100 mg, mean, n = 6
# [11] = single oral dose 200 mg, mean, n = 6
# [12] = single oral dose 400 mg, mean, n = 6
# [13] = single oral dose 600 mg, mean, n = 6
# [14] = single oral dose 800 mg, mean, n = 6
compound,measurement,setting,value
"CC(C)(C)NC(=O)N[C@H](C(=O)N1C[C@H]2[C@@H]([C@H]1C(=O)NC(CC1CCC1)C(=O)C(N)=O)C2(C)C)C(C)(C)C (mixture of isomers) [Formula Ia, (1 R, 5S)-N-[3-Amino-1-(Cyclobutylmethyl)-2,3-Dioxopropyl]-3-[2(S)-[[[(1,1-Dimethylethyl)Amino]Carbonyl]Amino]-3,3-Dimethyl-1-Oxobutyl]-6,6-Dimethyl-3-Azabicyclo[3.1.0]Hexan-2(S)-Carboxamide]",half-life,"[1]; plasma, oral, 100-800 mg dose cohorts, read-out: mean terminal phase half-life (t½)",7 to 15 h
same,AUC,"[1]; plasma, 50 mg, single oral dose 50 mg, mean, n = 6, read-out: AUC(l)",181 ng·h/mL
same,AUC,"[1]; plasma, 50 mg, single oral dose 50 mg, mean, n = 6, read-out: AUC(tf)",179 ng·h/mL
same,AUC,"[1]; plasma, 100 mg, single oral dose 100 mg, mean, n = 6, read-out: AUC(l)",345 ng·h/mL
same,AUC,"[1]; plasma, 100 mg, single oral dose 100 mg, mean, n = 6, read-out: AUC(tf)",337 ng·h/mL
same,AUC,"[1]; plasma, 200 mg, single oral dose 200 mg, mean, n = 6, read-out: AUC(l)",846 ng·h/mL
same,AUC,"[1]; plasma, 200 mg, single oral dose 200 mg, mean, n = 6, read-out: AUC(tf)",831 ng·h/mL
same,AUC,"[1]; plasma, 400 mg, single oral dose 400 mg, mean, n = 6, read-out: AUC(l)",1560 ng·h/mL
same,AUC,"[1]; plasma, 400 mg, single oral dose 400 mg, mean, n = 6, read-out: AUC(tf)",1530 ng·h/mL
same,AUC,"[1]; plasma, 600 mg, single oral dose 600 mg, mean, n = 6, read-out: AUC(l)",2160 ng·h/mL
same,AUC,"[1]; plasma, 600 mg, single oral dose 600 mg, mean, n = 6, read-out: AUC(tf)",2140 ng·h/mL
same,AUC,"[1]; plasma, 800 mg, single oral dose 800 mg, mean, n = 6, read-out: AUC(l)",2320 ng·h/mL
same,AUC,"[1]; plasma, 800 mg, single oral dose 800 mg, mean, n = 6, read-out: AUC(tf)",2300 ng·h/mL
same,Tmax,"[1]; plasma, across single oral doses 50-800 mg, read-out: median Tmax",1 to 2.25 h
same,Cmax,[1]; [3],58.7 ng/mL
same,Vd/F,[1]; [3],1070 L
same,Tmax,"[1]; plasma, single oral dose 50 mg, median, n = 6, read-out: Tmax",1.5 h
same,Cmax,[1]; [4],111 ng/mL
same,Vd/F,[1]; [4],2680 L
same,half-life,"[1]; plasma, single oral dose 100 mg, mean, n = 6, read-out: t½ (converted)",6.84 h
same,Tmax,"[1]; plasma, single oral dose 100 mg, median, n = 6, read-out: Tmax",2 h
same,Cmax,[1]; [5],281 ng/mL
same,Vd/F,[1]; [5],3840 L
same,half-life,"[1]; plasma, single oral dose 200 mg, mean, n = 6, read-out: t½ (converted)",10.8 h
same,Tmax,"[1]; plasma, single oral dose 200 mg, median, n = 6, read-out: Tmax",1 h
same,Cmax,[1]; [6],445 ng/mL
same,Vd/F,[1]; [6],5400 L
same,half-life,"[1]; plasma, single oral dose 400 mg, mean, n = 6, read-out: t½ (converted)",15.4 h
same,Tmax,"[1]; plasma, single oral dose 400 mg, median, n = 6, read-out: Tmax",1.75 h
same,Cmax,[1]; [7],528 ng/mL
same,Vd/F,[1]; [7],4110 L
same,half-life,"[1]; plasma, single oral dose 600 mg, mean, n = 6, read-out: t½ (converted)",10.2 h
same,Tmax,"[1]; plasma, single oral dose 600 mg, median, n = 6, read-out: Tmax",2.25 h
same,Cmax,[1]; [8],616 ng/mL
same,Vd/F,[1]; [8],5450 L
same,half-life,"[1]; plasma, single oral dose 800 mg, mean, n = 6, read-out: t½ (converted)",10.1 h
same,Tmax,"[1]; plasma, single oral dose 800 mg, median, n = 6, read-out: Tmax",1.25 h
same,half-life,"[1]; single oral dose 50 mg, mean, n = 6, value could not be well characterized because of low plasma concentrations in the terminal phase, read-out: t½ (converted)",2.69 h
same,DN AUC(l),"[1]; single oral dose 50 mg, mean",181 ng·h/mL
same,DN AUC(tf),"[1]; single oral dose 50 mg, mean",179 ng·h/mL
same,DN Cmax,"[1]; single oral dose 50 mg, mean",58.7 ng/mL
same,CL/F,[1]; [9],277 L/h
same,tf (time of final quantifiable sample),[1]; [9],15.3 h
same,DN AUC(l),"[1]; single oral dose 100 mg, mean",172 ng·h/mL
same,DN AUC(tf),"[1]; single oral dose 100 mg, mean",169 ng·h/mL
same,DN Cmax,"[1]; single oral dose 100 mg, mean",55.4 ng/mL
same,CL/F,[1]; [10],315 L/h
same,tf (time of final quantifiable sample),[1]; [10],26 h
same,DN AUC(l),"[1]; single oral dose 200 mg, mean",212 ng·h/mL
same,DN AUC(tf),"[1]; single oral dose 200 mg, mean",208 ng·h/mL
same,DN Cmax,"[1]; single oral dose 200 mg, mean",70.3 ng/mL
same,CL/F,[1]; [11],254 L/h
same,tf (time of final quantifiable sample),[1]; [11],40.0 h
same,DN AUC(l),"[1]; single oral dose 400 mg, mean",195 ng·h/mL
same,DN AUC(tf),"[1]; single oral dose 400 mg, mean",191 ng·h/mL
same,DN Cmax,"[1]; single oral dose 400 mg, mean",55.7 ng/mL
same,CL/F,[1]; [12],279 L/h
same,tf (time of final quantifiable sample),[1]; [12],52.0 h
same,DN AUC(l),"[1]; single oral dose 600 mg, mean",180 ng·h/mL
same,DN AUC(tf),"[1]; single oral dose 600 mg, mean",178 ng·h/mL
same,DN Cmax,"[1]; single oral dose 600 mg, mean",44.0 ng/mL
same,CL/F,[1]; [13],288 L/h
same,tf (time of final quantifiable sample),[1]; [13],52 h
same,DN AUC(l),"[1]; single oral dose 800 mg, mean",145 ng·h/mL
same,DN AUC(tf),"[1]; single oral dose 800 mg, mean",144 ng·h/mL
same,DN Cmax,"[1]; single oral dose 800 mg, mean",38.5 ng/mL
same,CL/F,[1]; [14],399 L/h
same,tf (time of final quantifiable sample),[1]; [14],56 h
same,IC50,"[2]; n=25, read-out: IC50 for suppression (4-log reduction) of the replicon (converted)",~200 nM
same,IC90,"[2]; n=25, read-out: IC90 for suppression (4-log reduction) of the replicon (converted)",~400 nM
